Values quoted from earlier work, collected in US20190281871A1, “CHICORY PRODUCTS CONTAINING CANNABINOIDS” (Full Spectrum Laboratories Ltd, priority 2016, published 2019).

How the values were obtained:
5-HT1A receptor = target: T1, 5-HT1A receptor (Homo sapiens, UniProt P08908)
T1 sequence (P08908 1-422): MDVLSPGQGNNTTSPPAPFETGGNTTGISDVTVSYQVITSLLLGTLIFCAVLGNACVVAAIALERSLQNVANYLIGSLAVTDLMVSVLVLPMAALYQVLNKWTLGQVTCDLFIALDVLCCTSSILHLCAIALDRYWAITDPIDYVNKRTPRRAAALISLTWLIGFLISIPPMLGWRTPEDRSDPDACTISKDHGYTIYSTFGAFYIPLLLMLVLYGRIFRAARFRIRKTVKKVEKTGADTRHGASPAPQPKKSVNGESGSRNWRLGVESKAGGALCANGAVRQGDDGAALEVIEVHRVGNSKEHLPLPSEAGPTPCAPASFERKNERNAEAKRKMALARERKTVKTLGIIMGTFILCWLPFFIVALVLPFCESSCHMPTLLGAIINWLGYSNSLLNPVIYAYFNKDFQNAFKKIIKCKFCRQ

CB1 receptor = CB1 receptor (Homo sapiens, UniProt P21554)
Sequence of CB1 receptor (P21554 whole entry): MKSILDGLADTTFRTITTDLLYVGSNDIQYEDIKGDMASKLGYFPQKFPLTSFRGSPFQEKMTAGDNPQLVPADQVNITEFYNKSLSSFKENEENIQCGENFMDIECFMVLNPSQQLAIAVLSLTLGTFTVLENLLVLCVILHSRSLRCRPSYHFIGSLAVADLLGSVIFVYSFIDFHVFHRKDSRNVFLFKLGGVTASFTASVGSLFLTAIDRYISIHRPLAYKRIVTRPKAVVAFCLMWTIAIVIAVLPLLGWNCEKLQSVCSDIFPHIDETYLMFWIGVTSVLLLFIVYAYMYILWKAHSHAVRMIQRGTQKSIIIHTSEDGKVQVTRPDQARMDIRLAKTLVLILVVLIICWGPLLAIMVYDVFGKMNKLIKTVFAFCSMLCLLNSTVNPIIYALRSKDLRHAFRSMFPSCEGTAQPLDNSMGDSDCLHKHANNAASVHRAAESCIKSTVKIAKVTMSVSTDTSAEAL

## CCCCCc1cc(O)c(C/C=C(\C)CCC=C(C)C)c(O)c1 [CBG, cannabigerol]
α2-adrenergic receptor
  α2-adrenergic receptor agonist affinity: high affinity
5-HT1A receptor
  5-HT1A receptor antagonist affinity: moderate affinity
CB1 receptor
  CB1 receptor antagonist affinity: low affinity
